Results from ChEMBL document CHEMBL3044788, “α-(Substituted-phenoxyacetoxy)-α-heterocyclylmethylphosphonates: synthesis, herbicidal activity, inhibition on pyruvate dehydrogenase complex (PDHc), and application as postemergent herbicide against broadleaf weeds” (J Agric Food Chem, 2013).
pIC50: −log10 of the molar value. Where “and” joins values, the source holds several entries; their conditions need not be identical. Identical values can stand only once.

Tests used:
[1] = system: Pisum sativum; assay: Herbicidal activity against 2 to 3 leaf stage Pisum sativum assessed as inhibition of plant growth at 450 g/ha in greenhouse by postemergence herbicidal activity assay; type: functional; conditions: Lathyrus oleraceus, post-emergence; read-out: GI
[2] = system: Echinochloa crus-galli; assay: Herbicidal activity against 2 to 3 leaf stage Echinochloa crus-galli (barnyard grass) assessed as inhibition of plant growth at 450 g/ha in greenhouse by postemergence herbicidal activity assay; type: functional; conditions: for inhibition of growth at 450 g/ha: Echinochloa crus-galli, post-emergence, read-out: GI
[3] = system: Oryza sativa; assay: Herbicidal activity against two to three-leaf stage Oryza sativa (rice) assessed as inhibition of plant growth at 450 g/ha in greenhouse by postemergence herbicidal activity assay; type: organism-based; conditions: in vivo, other
[4] = system: Amaranthus retroflexus; assay: Herbicidal activity against 2 to 3 leaf stage Amaranthus retroflexus assessed as inhibition of plant growth at 450 g/ha in greenhouse by postemergence herbicidal activity assay; type: functional; conditions: post-emergence, read-out: GI
[5] = system: Brassica juncea; assay: Herbicidal activity against two to three-leaf stage Brassica juncea assessed as inhibition of plant growth at 450 g/ha in greenhouse by post-emergence herbicidal activity assay; type: functional; conditions: read-out: GI
[6] = target: T1, Pyruvate dehydrogenase complex (Pisum sativum, UniProt P52902+P52904); assay: Inhibition of Pisum sativum (pea) PDHc by spectrophotometric assay; type: protein-complex assay, Lathyrus oleraceus
T1 sequence (P52902 whole entry): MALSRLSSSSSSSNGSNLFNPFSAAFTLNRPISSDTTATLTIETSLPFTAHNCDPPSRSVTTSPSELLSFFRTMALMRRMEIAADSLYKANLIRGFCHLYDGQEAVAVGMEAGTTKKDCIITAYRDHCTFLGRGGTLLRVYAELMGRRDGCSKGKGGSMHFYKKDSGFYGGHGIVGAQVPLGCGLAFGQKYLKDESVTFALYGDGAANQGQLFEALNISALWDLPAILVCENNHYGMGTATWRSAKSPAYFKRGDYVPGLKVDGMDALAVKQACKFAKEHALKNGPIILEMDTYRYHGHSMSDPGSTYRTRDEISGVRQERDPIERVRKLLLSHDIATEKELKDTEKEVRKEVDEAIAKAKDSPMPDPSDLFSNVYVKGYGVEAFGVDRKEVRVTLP
T1 sequence (P52904 whole entry): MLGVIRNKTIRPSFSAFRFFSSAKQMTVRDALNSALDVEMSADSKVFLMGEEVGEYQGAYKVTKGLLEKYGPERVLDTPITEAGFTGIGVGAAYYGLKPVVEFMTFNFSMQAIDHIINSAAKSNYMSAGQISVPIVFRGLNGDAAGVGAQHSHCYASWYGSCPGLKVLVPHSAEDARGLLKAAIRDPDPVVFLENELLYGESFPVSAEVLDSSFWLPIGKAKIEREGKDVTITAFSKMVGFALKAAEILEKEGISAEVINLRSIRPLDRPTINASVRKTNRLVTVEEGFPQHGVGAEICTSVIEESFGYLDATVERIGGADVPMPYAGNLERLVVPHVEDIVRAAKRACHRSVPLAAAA

[7] = system: Brassica rapa subsp. oleifera; assay: Herbicidal activity against Brassica rapa subsp. oleifera assessed as inhibition of rape root growth at 450 g/ha by pre-emergence herbicidal activity assay; type: functional; conditions: read-out: GI
[8] = system: Brassica rapa subsp. oleifera; assay: Herbicidal activity against Brassica rapa subsp. oleifera assessed as inhibition of rape root growth; type: functional, organism-based
[9] = system: Brassica rapa subsp. oleifera; assay: Herbicidal activity against Brassica rapa subsp. oleifera assessed as inhibition of rape root growth at 450 g/ha by postemergence herbicidal activity assay; type: functional; conditions: post-emergence, read-out: GI
[10] = Inhibition of Oryza sativa (rice) PDHc by spectrophotometric assay
[11] = system: Eclipta prostrata; assay: Herbicidal activity against two to three-leaf stage Eclipta prostrata assessed as inhibition of plant growth at 150 g/ha in greenhouse by post-emergence herbicidal activity assay; type: functional; conditions: read-out: GI
[12] = system: Brassica rapa subsp. oleifera; assay: Herbicidal activity against two to three-leaf stage Brassica rapa subsp. oleifera assessed as inhibition of plant growth at 450 g/ha in greenhouse by postemergence herbicidal activity assay; type: functional; conditions: post-emergence, read-out: GI
[13] = system: Amaranthus retroflexus; assay: Herbicidal activity against 2 to 3 leaf stage Amaranthus retroflexus assessed as inhibition of plant growth at 150 g/ha in greenhouse by postemergence herbicidal activity assay; type: functional; conditions: post-emergence, read-out: GI
[14] = system: Eclipta prostrata; assay: Herbicidal activity against two to three-leaf stage Eclipta prostrata assessed as inhibition of plant growth at 450 g/ha in greenhouse by post-emergence herbicidal activity assay; type: functional; conditions: read-out: GI
[15] = system: Brassica rapa subsp. oleifera; assay: Herbicidal activity against two to three-leaf stage Brassica rapa subsp. oleifera assessed as inhibition of plant growth at 150 g/ha in greenhouse by postemergence herbicidal activity assay; type: functional; conditions: post-emergence, read-out: GI
[16] = system: Abutilon theophrasti; assay: Herbicidal activity against two to three-leaf stage Abutilon theophrasti (velvetleaf) assessed as inhibition of plant growth at 450 g/ha in greenhouse by post-emergence herbicidal activity assay; type: functional; conditions: read-out: GI
[17] = system: Abutilon theophrasti; assay: Herbicidal activity against two to three-leaf stage Abutilon theophrasti (velvetleaf) assessed as inhibition of plant growth at 150 g/ha in greenhouse by post-emergence herbicidal activity assay; type: functional; conditions: read-out: GI

| SMILES | inhibition of growth at 450 g/ha [1] | inhibition of growth at 450 g/ha [2] | growth inhibition (GI) [3] | inhibition of growth at 450 g/ha [4] | inhibition of growth at 450 g/ha [5] | pIC50 [6] | inhibition of growth at 450 g/ha [7] | pIC50 [8] | inhibition of growth at 450 g/ha [9] | pIC50 [10] | inhibition of growth at 150 g/ha [11] | inhibition of growth at 450 g/ha [12] | inhibition of growth at 150 g/ha [13] | inhibition of growth at 450 g/ha [14] | inhibition of growth at 150 g/ha [15] | inhibition of growth at 450 g/ha [16] | inhibition of growth at 150 g/ha [17] | growth inhibition (GI) [2] |
| --- | --- | --- | --- | --- | --- | --- | --- | --- | --- | --- | --- | --- | --- | --- | --- | --- | --- | --- |
| COP(=O)(OC)C(OC(=O)COc1cccc(C(F)(F)F)c1)c1ccccn1 (stereo not given) | 0% | 0% | 0% | 77.5% | 60% | < 2.64 | – | – | – | – | – | – | – | – | – | – | – | – |
| COP(=O)(OC)C(=O)c1ccco1 | – | – | – | – | – | – | 56% | 3.63 | 50% | – | – | – | – | – | – | – | – | – |
| COP(=O)(OC)C(O)c1ccco1 (stereo not given) | – | – | – | – | – | – | 25% | < 2.33 | 20% | – | – | – | – | – | – | – | – | – |
| CCCC(OC(=O)COc1ccc(Cl)cc1Cl)P(=O)([O-])OC.[Na+] (stereo not given) | 77.5% | 45% | 22% | 97% | 96% | – | – | – | – | 5.49 | – | – | – | – | – | – | – | – |
| CCC(OC(=O)COc1ccc(Cl)cc1Cl)P(=O)([O-])OC.[Na+] (stereo not given) | 90% | 30% | 27% | 97% | 94.5% | – | – | – | – | 4.72 | – | – | – | – | – | – | – | – |
| COP(=O)(O)C(=O)c1ccco1 | 35% | 25% | – | 25% | – | 3.41 | 20% | 2.49 | 30% | – | – | – | – | – | – | – | – | – |
| COP(=O)(O)C(C)=O [SODIUM METHYL ACETYLPHOSPHONATE] | – | – | – | – | – | 4.15 | – | – | – | – | – | – | – | – | – | – | – | – |
| COP(=O)(OC)C(OC(=O)COc1ccc(Cl)cc1Cl)c1cccs1 (stereo not given) | – | – | – | 100% | – | – | – | – | – | – | 80% | 100% | 90% | 100% | 90% | 100% | 90% | – |
| COP(=O)(OC)C(OC(=O)COc1ccc(Cl)c(C)c1)c1cccs1 (stereo not given) | – | – | – | 60% | – | – | – | – | – | – | 50% | 60% | 50% | 70% | 0% | 60% | 0% | – |
| COP(=O)(OC)C(C)O (stereo not given) [DIMETHYL 1-HYDROXYETHYLPHOSPHONATE] | – | – | – | – | – | – | 36% | 2.62 | 30% | – | – | – | – | – | – | – | – | – |
| O=C(O)COc1ccc(Cl)cc1Cl [2,4-DICHLOROPHENOXYACETIC ACID] | 97.5% | 35% | – | 100% | 100% | < 2.34 | 98% | 7.25 | 90% | – | 90% | – | 92% | – | 92.5% | – | 93% | – |
| COP(=O)(OC)C(C)OC(=O)COc1ccc(Cl)cc1Cl (stereo not given) [CLACYFOS] | 97.5% | – | 0% | 100% | 100% | – | 96% | 7.46 | 98% | 3.06 | 90% | 100% | 91% | 0% | 92% | 100% | 95% | 35% and 100% |
| COP(=O)(OC)C(C)=O [DIMETHYL ACETYLPHOSPHONATE] | – | – | – | – | – | – | 34% | 2.73 | 45% | – | – | – | – | – | – | – | – | – |
| COP(=O)(OC)C(OC(=O)COc1ccc(F)cc1Cl)c1cccs1 (stereo not given) | – | – | – | 100% | – | – | – | – | – | – | 80% | 95% | 90% | 85% | 75% | 90% | 70% | – |
| COP(=O)(OC)C(OC(=O)COc1ccc(F)cc1F)c1cccs1 (stereo not given) | – | – | – | 70% | – | – | – | – | – | – | 60% | 80% | 60% | 70% | 70% | 75% | 60% | – |
| COP(=O)([O-])C(C)OC(=O)COc1ccc(Cl)cc1Cl.[Na+] (stereo not given) | 71.5% | 50% | 27% | 98% | 100% | – | – | – | – | 6.54 | – | – | – | – | – | – | – | – |
| COP(=O)(OC)C(OC(=O)COc1ccc(Cl)cc1)c1cccs1 (stereo not given) | – | – | – | 80% | – | – | – | – | – | – | 70% | 90% | 70% | 30% | 70% | 85% | 70% | – |
| COP(=O)(O)C(O)c1ccco1 (stereo not given) | 0% | 17.5% | – | 0% | – | < 2.33 | 23% | < 2.33 | 20% | – | – | – | – | – | – | – | – | – |
| COP(=O)([O-])COC(=O)COc1ccc(Cl)cc1Cl.[Na+] | 52.5% | 10% | 12% | 92% | 93% | – | – | – | – | 4.54 | – | – | – | – | – | – | – | – |
